For 1 molecule, Activity and inhibition results are on record in ChEMBL document CHEMBL3044779, “The action of herbicides on fatty acid biosynthesis and elongation in barley and cucumber” (Pest Manag Sci, 2010).

Test [1] has as its system Hordeum vulgare. As to the kind of experiment: Inhibition of fatty acid synthesis in Hordeum vulgare (barley) assessed as inhibition of [14C]acetate incoporation in total fatty acids at 30 uM measured as total disintegration per g of fresh weight after 3 hr by liquid scintillation counting (reference value: 5.7 +/- 0.5 10^6 dpm x 10'6 g'1 fresh wt). Type of test: functional.

The test system of test [2] is Cucumis sativus. Put plainly: Inhibition of fatty acid synthesis in Cucumis sativus (cucumber) using [14C]malonate assessed as inhibition of [14C]-labeled 24C fatty acid production at 30 uM after 3 hr by liquid scintillation counting. Type of test: functional, organism-based.
Test [3] deals with Hordeum vulgare. As to the kind of experiment: Inhibition of fatty acid synthesis in Hordeum vulgare (barley) using [14C]malonate assessed as inhibition of [14C]-labeled 24C fatty acid production at 30 uM after 3 hr by liquid scintillation counting. Type of test: functional, organism-based.
For test [4], the system named is Cucumis sativus. As to the kind of experiment: Inhibition of fatty acid synthesis in Cucumis sativus (cucumber) using [14C]malonate assessed as inhibition of [14C]-labeled 22C fatty acid production at 30 uM after 3 hr by liquid scintillation counting. Type of test: functional, organism-based.
Test [5] deals with Hordeum vulgare. Put plainly: Inhibition of fatty acid synthesis in Hordeum vulgare (barley) using [14C]malonate assessed as inhibition of [14C]-labeled 22C fatty acid production at 30 uM after 3 hr by liquid scintillation counting. Type of test: functional, organism-based.
Test [6] concerns Cucumis sativus. Put plainly: Inhibition of fatty acid synthesis in Cucumis sativus (cucumber) using [14C]malonate assessed as inhibition of [14C]-labeled 18C fatty acid production at 30 uM after 3 hr by liquid scintillation counting. Type of test: functional, organism-based.
Test [7] relates to Hordeum vulgare. As to the kind of experiment: Inhibition of fatty acid synthesis in Hordeum vulgare (barley) using [14C]malonate assessed as inhibition of [14C]-labeled 18C fatty acid production at 30 uM after 3 hr by liquid scintillation counting. Type of test: functional, organism-based.
In test [8] the test system is Hordeum vulgare. Put plainly: Inhibition of fatty acid synthesis in Hordeum vulgare (barley) using [14C]acetate assessed as [14C]-labeled 22C fatty acid level at 30 uM after 3 hr by liquid scintillation counting (reference value: 5.5 +/- 0.2%). Type of test: functional. Details: scale not given: the % may be the effect or the level left.
For test [9], the system named is Cucumis sativus. As to the kind of experiment: Inhibition of fatty acid synthesis in Cucumis sativus (cucumber) using [14C]acetate assessed as [14C]-labeled 20C fatty acid level at 30 uM after 3 hr by liquid scintillation counting (reference value: 5.1 +/- 0.7%). Type of test: functional. Set-up: scale not given: the % may be the effect or the level left.
Test [10] relates to Cucumis sativus. Put plainly: Inhibition of fatty acid synthesis in Cucumis sativus (cucumber) using [14C]malonate assessed as inhibition of [14C]-labeled 20C fatty acid production at 30 uM after 3 hr by liquid scintillation counting. Type of test: functional, organism-based.
In test [11] the test system is Hordeum vulgare. Put plainly: Inhibition of fatty acid synthesis in Hordeum vulgare (barley) using [14C]malonate assessed as inhibition of [14C]-labeled 20C fatty acid production at 30 uM after 3 hr by liquid scintillation counting. Type of test: functional, organism-based.
For test [12], the system named is Cucumis sativus. As to the kind of experiment: Inhibition of fatty acid synthesis in Cucumis sativus (cucumber) using [14C]malonate assessed as inhibition of [14C]-labeled 16C fatty acid production at 30 uM after 3 hr by liquid scintillation counting. Type of test: functional, organism-based.
Test [13] relates to Hordeum vulgare. Put plainly: Inhibition of fatty acid synthesis in Hordeum vulgare (barley) using [14C]malonate assessed as inhibition of [14C]-labeled 16C fatty acid production at 30 uM after 3 hr by liquid scintillation counting. Type of test: functional, organism-based.
The subject of test [14] is Cucumis sativus. Put plainly: Inhibition of fatty acid synthesis in Cucumis sativus (cucumber) assessed as inhibition of [14C]malonate incoporation in total fatty acids at 30 uM measured after 3 hr by liquid scintillation counting. Type of test: functional, organism-based.
Test [15] relates to Hordeum vulgare. As to the kind of experiment: Inhibition of fatty acid synthesis in Hordeum vulgare (barley) assessed as inhibition of [14C]malonate incoporation in total fatty acids at 30 uM measured after 3 hr by liquid scintillation counting. Type of test: functional, organism-based.
Test [16] relates to Cucumis sativus. As to the kind of experiment: Inhibition of fatty acid synthesis in Cucumis sativus (cucumber) using [14C]acetate assessed as [14C]-labeled 24C fatty acid level at 30 uM after 3 hr by liquid scintillation counting (reference value: 6.5 +/- 1%). Type of test: functional. Details: scale not given: the % may be the effect or the level left.
The test system of test [17] is Hordeum vulgare. As to the kind of experiment: Inhibition of fatty acid synthesis in Hordeum vulgare (barley) using [14C]acetate assessed as [14C]-labeled 20C fatty acid level at 30 uM after 3 hr by liquid scintillation counting (reference value: 4.7 +/- 1.6%). Type of test: functional. Set-up: scale not given: the % may be the effect or the level left.
Test [18] concerns Cucumis sativus. As to the kind of experiment: Inhibition of fatty acid synthesis in Cucumis sativus (cucumber) using [14C]acetate assessed as [14C]-labeled 18C fatty acid level at 30 uM after 3 hr by liquid scintillation counting (reference value: 41.2 +/- 1.1%). Type of test: functional. Set-up: scale not given: the % may be the effect or the level left.
The test system of test [19] is Hordeum vulgare. As to the kind of experiment: Inhibition of fatty acid synthesis in Hordeum vulgare (barley) using [14C]acetate assessed as [14C]-labeled 18C fatty acid level at 30 uM after 3 hr by liquid scintillation counting (reference value: 60.3 +/- 1.3%). Type of test: functional. Set-up: scale not given: the % may be the effect or the level left.
The test system of test [20] is Cucumis sativus. Put plainly: Inhibition of fatty acid synthesis in Cucumis sativus (cucumber) using [14C]acetate assessed as [14C]-labeled 16C fatty acid level at 30 uM after 3 hr by liquid scintillation counting (reference value: 29.2 +/- 3.5%). Set-up: scale not given: the % may be the effect or the level left. Type of test: functional.
Test [21] concerns Hordeum vulgare. Put plainly: Inhibition of fatty acid synthesis in Hordeum vulgare (barley) using [14C]acetate assessed as [14C]-labeled 16C fatty acid level at 30 uM after 3 hr by liquid scintillation counting (reference value: 29.5 +/- 1.3%). Type of test: functional. Set-up: scale not given: the % may be the effect or the level left.
The test system of test [22] is Cucumis sativus. Put plainly: Inhibition of fatty acid synthesis in Cucumis sativus (cucumber) assessed as inhibition of [14C]acetate incoporation in total fatty acids at 30 uM measured as total disintegration per g of fresh weight after 3 hr by liquid scintillation counting (reference value: 6.4 +/- 1.2 dpm x 10^6 g'1 fresh wt). Type of test: functional.
The test system of test [23] is Cucumis sativus. Put plainly: Inhibition of fatty acid synthesis in Cucumis sativus (cucumber) using [14C]acetate assessed as [14C]-labeled 22C fatty acid level at 30 uM after 3 hr by liquid scintillation counting (reference value: 17.9 +/- 2.5%). Type of test: functional. Details: scale not given: the % may be the effect or the level left.

Activity calls are given as the source filed them. No cut-off for these calls is given here.

For `CCN(CC)C(=O)C(C)Oc1cccc2ccccc12` (stereo not drawn) [NAPROPAMIDE], the Activity was 5.2 ×10⁶ dpm in the test on Hordeum vulgare [1]; 6.9% in the test with Hordeum vulgare [8]; 5.5% in the test with Cucumis sativus [9]; 5.9% in the test with Cucumis sativus [16]; 7.6% in the test with Hordeum vulgare [17]; 43.1% in the test with Cucumis sativus [18]. In addition, the Activity is 66.9% in the test on Hordeum vulgare [19]; 26.5% in the test on Cucumis sativus [20]; 18.7% in the test on Hordeum vulgare [21]; 6.2 ×10⁶ dpm in the test on Cucumis sativus [22]; 19% in the test on Cucumis sativus [23]. The inhibition result in the test with Cucumis sativus [2], with Hordeum vulgare [3], in the test with Cucumis sativus [4], in the test with Hordeum vulgare [5], with Cucumis sativus [6] and in the test with Hordeum vulgare [7] was “inactive” in each case. In addition, the inhibition result with Cucumis sativus [10], in the test on Hordeum vulgare [11], in the test with Cucumis sativus [12], in the test with Hordeum vulgare [13], with Cucumis sativus [14] and in the test on Hordeum vulgare [15] was “inactive” each time.
